Measurements reported in US7220580B2, “Sphingosine 1-phosphate receptor gene, sppr” (University of South Florida, priority 2000, dated 2007).

What was measured:
S1P5 = biological target: T1, S1P5 (Homo sapiens, UniProt Q9H228); assay: Erk2 kinase assay in HEK293 cells transiently transfected with S1P5; format: cell-based; details: HEK293 cells transiently transfected with S1P5 and HA-Erk2, 1 μM ligand for 5 min, MBP as substrate
T1 construct: The largest PCR product contains a complete open reading frame; expressed in transfected cells; host or cells: HEK293
Experimental: Vector plasmid is added to each transfection reaction to equalize the amount of total DNA (2.1 μg). […] HA-ERK2 is immunoprecipitated from one half of each whole cell lysate and used for measuring the kinase activity utilizing MBP as substrate, while HA-ERK2 immunoprecipitated from the other half is used for determining the amount of ERK2 protein in the immune complex. FIG. 10 illustrates a representative autoradiogram of ^32P incorporation into MBP catalyzed by HA-ERK 2 immunoprecipitated from transiently transfected cells treated as indicated. […] Cell Culture and Transfection. HEK293 cells are grown in Dulbecco's modified eagle's medium supplemented with 10% fetal bovine serum. The cells are transiently transfected with a plasmid encoding HA-tagged Erk2 (HA-Erk2) and either pcDNA 3 S1P5 or pcDNA 3.1. Transfection is achieved by incubating the cells in 60 mm plates with plasmid/Lipofectamine complexes (2.1 μg total DNA/12 μl Lipofectamine) in serum-free medium for 5 hours. The DNA complexes are removed from the medium and the cells are starved overnight in serum-free medium and then used for experimentation. Erk2 Kinase Assay. […] The cells are lysed in buffer containing 50 mM Tris-HC1 pH 7.5, 150 mM NaCl, 1 mM EDTA, 1 mM EGTA, 1 mM DTT, 1% Triton X-100, 25 mM NaF, 5 mM sodium pyrophosphate, 20 mM ρ-nitrophenyl phosphate, 2 μg/mL leupeptin, and 100 μg/mL phenylmethylsulfonyl fluoride. HA-Erk2 is immunoprecipitated with the monoclonal antibody HA.11 (Convance, Richmond, Calif.). […] The reaction is terminated with SDS-containing gel-loading buffer and the reaction mixtures are analyzed on 11% SDS-polyacrylamide gels. The gels are processed by autoradiography. The bands on the gels are quantitated with a PhosphorImager. Erk2 protein in the immunoprecipitate is determined by immunoblotting with a polyclonal antibody to Erk2.

EDG-8 [1] = biological target: T2, EDG-8 (Rattus norvegicus, UniProt Q9JKM5); details: CHO cells expressing EDG-8; cited from earlier work
T2 construct: host or cells: CHO cells

EDG-8 [2] = biological target: T2, EDG-8; details: CHO cells expressing EDG-8; cited from earlier work; remark: listed apart in the source

T1 sequence (Q9H228 whole entry): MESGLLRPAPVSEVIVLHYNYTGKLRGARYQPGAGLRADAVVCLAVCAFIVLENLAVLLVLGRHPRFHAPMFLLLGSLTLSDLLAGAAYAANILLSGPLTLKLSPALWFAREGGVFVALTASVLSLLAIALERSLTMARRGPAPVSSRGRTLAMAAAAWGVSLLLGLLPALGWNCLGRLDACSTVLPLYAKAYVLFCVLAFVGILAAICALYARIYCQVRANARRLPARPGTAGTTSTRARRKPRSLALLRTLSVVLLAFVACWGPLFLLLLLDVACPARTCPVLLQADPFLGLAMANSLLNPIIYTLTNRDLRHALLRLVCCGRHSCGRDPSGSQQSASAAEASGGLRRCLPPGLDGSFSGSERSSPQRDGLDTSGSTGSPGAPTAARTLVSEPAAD
T2 sequence (Q9JKM5 whole entry): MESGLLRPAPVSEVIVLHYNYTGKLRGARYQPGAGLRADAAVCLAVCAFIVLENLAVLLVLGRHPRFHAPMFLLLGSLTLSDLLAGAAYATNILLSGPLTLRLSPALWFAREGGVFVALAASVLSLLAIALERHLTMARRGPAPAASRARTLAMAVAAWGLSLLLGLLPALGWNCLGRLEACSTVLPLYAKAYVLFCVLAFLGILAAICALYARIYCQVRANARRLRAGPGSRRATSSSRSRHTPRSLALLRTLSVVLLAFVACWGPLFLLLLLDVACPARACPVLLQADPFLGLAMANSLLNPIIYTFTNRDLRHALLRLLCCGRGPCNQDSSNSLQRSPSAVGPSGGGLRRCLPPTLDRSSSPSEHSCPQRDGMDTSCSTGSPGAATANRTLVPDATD

| activation of Erk2 activity (S1P5) | activation of Erk2 activity (S1P5; listed as lysophosphatidic acid) | activation of Erk2 activity (S1P5; listed as sphingosine-1-phosphate) | Molecule | cell proliferation (EDG-8 [1]) | serum-induced activation of Erk1/2 (EDG-8 [2]) |
| --- | --- | --- | --- | --- | --- |
| not | does not | – | lysophosphatidic acid [LPA] | – | – |
| activates Erk2 | – | activation of Erk2 activity | CCCCCCCCCCCCC/C=C/[C@@H](O)[C@@H](N)COP(=O)(O)O [S1P, sphingosine-1-phosphate] | inhibits the cell proliferation | inhibited |
